According to publication PMC10791743, “Selective CK1α degraders exert antiproliferative activity against a broad range of human cancer cell lines” (Nature Communications, 2024):
Several values for one entry are separate records, joined by “and”; a condition that tells them apart may be missing. Equal values may be shown once. Entries after “also recorded” stand apart in the source; their conditions may differ.

Tests used:
[1] = tested on: AN3 CA; experiment: cells; parameters: Oncolines panel cell viability, ATPlite 1Step luminescence, duplicate 9-point dose response, IC50; details: Homo sapiens, AN3-CA; 72 h viability; read-out: SJ3149
Experimental: (§1) Cell viability assays were performed as previously described. In brief, cells were seeded in a 384-well plate at an optimized density. The starting cell number was determined after 24 h incubation by adding ATPlite 1Step (Perkin Elmer, Groningen, the Netherlands) to each well and recording luminescence on an Envision multimode reader (Perkin Elmer, Waltham, MA). After the addition of a duplicate 9-point dilution series of SJ3149, cells were incubated for another 72 h, followed by cell counting using ATPlite 1Step. The dilution series ranged from 3.2 to 31,600 nM or was diluted 100-fold for the most sensitive cell lines to ideally capture the complete dose–response curve. Percentage viability was determined at each compound concentration by relating the observed signal to a vehicle-treated control, that is, medium containing 0.4% (v/v) DMSO. Compound IC50 values were calculated by fitting a 4-parameter logistic curve to the percentage viability values using IDBS XLfit5 (IDBS, Guildford, UK). The IC50 was limited to the maximum tested compound concentration when the IC50 exceeded the maximum tested concentration. […] To evaluate the compound’s effect and potential therapeutic application across a diverse range of human cancers, we profiled SJ3149 in Oncolines® panel consisting of 115 human cancer cell lines, of which 86 were solid tumor and 29 hematologic cell lines, including MOLM-13. Effect on cell viability was monitored using ATPLite™ (Perkin Elmer), which measures intracellular ATP content as an indirect readout of cell number, like CellTiter Glo.

[2] = tested on: T24; experiment: cells; parameters: Oncolines panel cell viability, ATPlite 1Step luminescence, duplicate 9-point dose response, IC50; details: Homo sapiens, T-24; 72 h viability; read-out: SJ3149
Experimental: as §1

[3] = tested on: DB; experiment: cells; parameters: Oncolines panel cell viability, ATPlite 1Step luminescence, duplicate 9-point dose response, IC50; details: Homo sapiens, DB; 72 h viability; read-out: SJ3149
Experimental: as §1

[4] = tested on: SJCRH30; experiment: cells; parameters: Oncolines panel cell viability, ATPlite 1Step luminescence, duplicate 9-point dose response, IC50; details: 72 h viability; read-out: SJ3149
Experimental: as §1

[5] = tested on: NCI-H460; experiment: cells; parameters: Oncolines panel cell viability, ATPlite 1Step luminescence, duplicate 9-point dose response, IC50; details: Homo sapiens, NCI-H460; 72 h viability; read-out: SJ3149
Experimental: as §1

[6] = tested on: HCT-15; experiment: cells; parameters: Oncolines panel cell viability, ATPlite 1Step luminescence, duplicate 9-point dose response, IC50; details: Homo sapiens, HCT-15; 72 h viability; read-out: SJ3149
Experimental: as §1

[7] = tested on: SUP-T1; experiment: cells; parameters: Oncolines panel cell viability, ATPlite 1Step luminescence, duplicate 9-point dose response, IC50; details: Homo sapiens, SUP-T1; 72 h viability; read-out: SJ3149
Experimental: as §1

[8] = tested on: SNU-C2B; experiment: cells; parameters: Oncolines panel cell viability, ATPlite 1Step luminescence, duplicate 9-point dose response, IC50; details: Homo sapiens, SNU-C2B; 72 h viability; read-out: SJ3149
Experimental: as §1

[9] = tested on: NCI-H82; experiment: cells; parameters: Oncolines panel cell viability, ATPlite 1Step luminescence, duplicate 9-point dose response, IC50; details: Homo sapiens, NCI-H82; 72 h viability; read-out: SJ3149
Experimental: as §1

[10] = tested on: DU 145; experiment: cells; parameters: Oncolines panel cell viability, ATPlite 1Step luminescence, duplicate 9-point dose response, IC50; details: Homo sapiens, DU-145; 72 h viability; read-out: SJ3149
Experimental: as §1

[11] = tested on: MG-63; experiment: cells; parameters: Oncolines panel cell viability, ATPlite 1Step luminescence, duplicate 9-point dose response, IC50; details: Homo sapiens, MG-63; 72 h viability; read-out: SJ3149
Experimental: as §1

[12] = tested on: PFSK-1; experiment: cells; parameters: Oncolines panel cell viability, ATPlite 1Step luminescence, duplicate 9-point dose response, IC50; details: Homo sapiens, PFSK-1; 72 h viability; read-out: SJ3149
Experimental: as §1

[13] = tested on: A388; experiment: cells; parameters: Oncolines panel cell viability, ATPlite 1Step luminescence, duplicate 9-point dose response, IC50; details: 72 h viability; read-out: SJ3149
Experimental: as §1

[14] = tested on: OVCAR-3; experiment: cells; parameters: Oncolines panel cell viability, ATPlite 1Step luminescence, duplicate 9-point dose response, IC50; details: Homo sapiens, OVCAR-3; 72 h viability; read-out: SJ3149
Experimental: as §1

[15] = tested on: SK-N-AS; experiment: cells; parameters: Oncolines panel cell viability, ATPlite 1Step luminescence, duplicate 9-point dose response, IC50; details: Homo sapiens, SK-N-AS; 72 h viability; read-out: SJ3149
Experimental: as §1

[16] = tested on: MIA PaCa-2; experiment: cells; parameters: Oncolines panel cell viability, ATPlite 1Step luminescence, duplicate 9-point dose response, IC50; details: Homo sapiens, MIA PaCa-2; 72 h viability; read-out: SJ3149
Experimental: as §1

[17] = tested on: MOLM-13 cells overexpressing FLAG-tagged CK1α G40N mutant; experiment: CK1α mutant rescue, CTG viability, FLAG-CK1α G40N MOLM-13; type: cell-based, human
Experimental: To evaluate the contribution of the CK1α degradation in SJ3149-mediated cytotoxicity, we utilized the degradation-resistant mutant CK1α G40N[41]. MOLM-13 cells were transduced with lentivirus to overexpress FLAG-tagged wild type CK1α or the G40N mutant, which removes the essential glycine in the CK1α degron G-loop.
The media was changed after cells rested in the 37 °C incubator overnight. […] As described above in the Molecular Glue Library Screening section, transduced MOLM-13 cells were seeded in 384-well plates at 1250 cells per well and allowed to rest overnight. 30 nl of CK1α degraders of interest were deposited on the cells using an Echo 650 acoustic liquid handler […]. […] This was done twice for a total of six technical replicates.

SMILES: O=C1CCC(N2Cc3cc(Nc4noc5ccccc45)ccc3C2=O)C(=O)N1 (centres unmarked) [SJ3149]
- IC50 [1]: > 31.6 µM
- IC50 [2]: > 31.6 µM
- IC50 [3]: > 31.6 µM
- IC50 [4]: > 31.6 µM
- IC50 [5]: > 31.6 µM
- IC50 [6]: > 31.6 µM
- IC50 [7]: > 31.6 µM
- IC50 [8]: > 31.6 µM
- IC50 [9]: > 31.6 µM
- IC50 [10]: > 31.6 µM
- IC50 [11]: > 31.6 µM
- IC50 [12]: > 31.6 µM
- IC50 [13]: > 31.6 µM
- IC50 [14]: > 31.6 µM
- IC50 [15]: > 31.6 µM
- IC50 [16]: > 31.6 µM
- Viability response of cells expressing CK1α G40N vs wild type CK1α ([17]; CTG 72 h): no longer sensitive to SJ3149; also recorded: reduced response
- cell viability percentages, CK1a G40N ([17]; Concentration 0.000542): 79.1206% and 68.9136% and 86.2719% and 90.6755% and 74.2686% and 67.4931%
- cell viability percentages, CK1a G40N ([17]; Concentration 0.001625): 77.8434% and 63.4222% and 59.9052% and 65.772% and 68.5727% and 55.5817%
- cell viability percentages, CK1a G40N ([17]; Concentration 0.004875): 72.8442% and 62.075% and 50.1243% and 53.1953% and 62.3344% and 69.4392%
- cell viability percentages, CK1a G40N ([17]; Concentration 0.014624): 59.4413% and 49.1388% and 62.3084% and 70.556% and 54.4032% and 55.8792%
- cell viability percentages, CK1a G40N ([17]; Concentration 0.043872): 47.6849% and 48.0051% and 58.611% and 66.0269% and 52.3495% and 54.2867%
- cell viability percentages, CK1a G40N ([17]; Concentration 0.131617): 56.3532% and 47.9219% and 49.9326% and 67.2267% and 57.1406% and 57.2358%
- cell viability percentages, CK1a G40N ([17]; Concentration 0.394851): 51.3415% and 43.4521% and 48.9175% and 55.4224% and 56.3876% and 59.8672%
- cell viability percentages, CK1a G40N ([17]; Concentration 1.18455): 47.8506% and 47.8436% and 44.0498% and 54.2517% and 50.6636% and 54.2115%
- cell viability percentages, CK1a G40N ([17]; Concentration 3.55366): 37.4202% and 38.8791% and 44.5898% and 50.284% and 52.251% and 51.3543%
